Converted amounts (≈) assume the structure as drawn.
Key:
[1] = test system: Staphylococcus aureus (ATCC 6538P); assay: Antibacterial assay (MIC), Staphylococcus aureus ATCC 6538P, Luria Broth, Example 1; format: cell-based; conditions: Staphylococcus aureus, ATCC6538P; Example 1 compounds; S. aureus ATCC 6538P; 24 hrs, 37° C.; range if at least two of three values fell within it; read-out: Sa (minimum inhibitory concentration)
Procedure: (§1) Antibacterial Assay Method for Staphylococcus aureus (ATCC 6538P) and Enterococcus faecium
Staphylococcus aureus (ATCC 6538P)
(§2) Compounds are accurately weighed out (between approx. 1-2 mg) and dissolved in either 10% methanol/water (v/v) or 100% DMSO to a final stock concentration of 5 mg/ml.
(§3) Compounds are then diluted 1/10 in H2O to a test conc of 500 ug/ml ready for immediate use, or storage at −20° C.
(§4) Grow up an o/n starter culture of Staphylococcus aureus and each VRE strain by diluting previous culture (stored at 4° C.) 1/1000 into −50 mls Luria Broth (LB) for S. aureus or Enterococossel Broth (EB) for the VRE strains.
(§5) Incubate o/n at 37° C.+shaking. • A glycerol stock (0.6 mls bacterial culture, 0.3 mls glycerol) of each strain is kept at −80° C. if needed. Assay Set Up:
(§6) In a 96well round bottom plate add 50 ul LB/well for the S. aureus plate and add 50 ul EB/well for the VRE plates.
(§7) Add 50 ul of compound dilution (500 ug/ml test conc) to each of three top row wells (ie: tested in triplicate) and dilute 1 in 2 from the top row to the bottom row.
(§8) After the compound dilution, add to each well 50 ul of a 1/1000 dilution of the appropriate overnight bacterial culture, either S. aureus or the different VRE strains.
(§9) Plates are incubated at 37° C. on a slowly rotating plate incubator. • test concentrations are (in ug/ml) 125, 62.5, 31.25, 15.6, 7.8, 3.9, 1.9, 0.98 • final DMSO concentration in the first row of wells of the assay is 2.5% • Vancomycin is included in the assay (in triplicate) at a starting test concentration of 5 ug/ml for S. aureus and 125 ug/ml for the VRE strains Reading Results of Assay:
(§10) After incubation for 24 hrs the plates are removed and read. Inhibition of bacterial growth is indicated by lack of bacterial pellet or a clear well. In the VRE plates bacterial growth is indicated by black coloured media (EB) as well as a bacterial pellet.
(§11) Untreated control wells are included in the assay to check they all contain bacterial pellets. Uninoculated untreated control wells are included to check they all contain clear medium.
(§12) The plates are analysed for MIC and the results tabulated.

[2] = test system: #243 E. faecium van B ST17; assay: Antibacterial assay (MIC), VRE strain #243, Enterococossel Broth, Example 1; format: cell-based, Enterococcus faecium; conditions: Enterococcus faecium; Example 1 compounds; VRE #243 E. faecium van B; 24 hrs, 37° C.; read-out: 243 (minimum inhibitory concentration)
Procedure: as §1
(§13) VRE strains: #243 E. faecium van B ST17 #449 E. faecium van B ST17
as §2, §3, §4, §5, §6, §7, §8, §9, §10, §11, §12

[3] = test system: #449 E. faecium van B ST17; assay: Antibacterial assay (MIC), VRE strain #449, Enterococossel Broth, Example 1; format: cell-based, Enterococcus faecium; conditions: Enterococcus faecium; Example 1 compounds; VRE #449 E. faecium van B; 24 hrs, 37° C.; read-out: 449 (minimum inhibitory concentration)
Procedure: as §1, §13, §2, §3, §4, §5, §6, §7, §8, §9, §10, §11, §12

[4] = test system: #820 E. faecium van A ST17; assay: Antibacterial assay (MIC), VRE strain #820, Enterococossel Broth, Example 1; format: cell-based, Enterococcus faecium; conditions: Enterococcus faecium; Example 1 compounds; VRE #820 E. faecium van A; 24 hrs, 37° C.; read-out: 820 (minimum inhibitory concentration)
Procedure: as §1
(§14) #820 E. faecium van A ST17 #987 E. faecium van B ST39
as §2, §3, §4, §5, §6, §7, §8, §9, §10, §11, §12

[5] = test system: #987 E. faecium van B ST39; assay: Antibacterial assay (MIC), VRE strain #987, Enterococossel Broth, Example 1; format: cell-based, Enterococcus faecium; conditions: Enterococcus faecium; Example 1 compounds; VRE #987 E. faecium van B; 24 hrs, 37° C.; read-out: 987 (minimum inhibitory concentration)
Procedure: as §1, §14, §2, §3, §4, §5, §6, §7, §8, §9, §10, §11, §12

SMILES | MIC [1] | MIC [2] | MIC [3] | MIC [4] | MIC [5]
CC(C)CCOc1ccc2ccccc2c1-c1c(OCC(=O)N[C@H](CCCCN)C(=O)N[C@H](CCCNC(=N)N)C(=O)N[C@H](C(=O)OCc2ccccc2)C(C)C)ccc2ccccc12.Cl.Cl (atropisomer, axis not shown) [Compound 2] | 0.99 to 15.6 µg/mL | 15.7 to 62.5 µg/mL | 15.7 to 62.5 µg/mL | 15.7 to 62.5 µg/mL | 15.7 to 62.5 µg/mL
CC(C)CCOc1ccc2ccccc2c1-c1c(OCC(=O)N[C@H](CCCCN)C(=O)N[C@H](CCCNC(=N)N)C(=O)N[C@@H](CC(C)C)C(=O)OCc2ccc(Cl)cc2)ccc2ccccc12.Cl.Cl (atropisomer, axis not shown) [Compound 4] | 0.99 to 15.6 µg/mL | 15.7 to 62.5 µg/mL | 15.7 to 62.5 µg/mL | 15.7 to 62.5 µg/mL | 15.7 to 62.5 µg/mL
CC(C)CCOc1ccc2ccccc2c1-c1c(OCC(=O)N[C@H](CCCCN)C(=O)N[C@H](CCCNC(=N)N)C(=O)N[C@@H](CC(C)C)C(=O)OCc2ccc([N+](=O)[O-])cc2)ccc2ccccc12.Cl.Cl (atropisomer, axis not shown) [Compound 5] | 0.99 to 15.6 µg/mL | 15.7 to 62.5 µg/mL | 15.7 to 62.5 µg/mL | 15.7 to 62.5 µg/mL | 15.7 to 62.5 µg/mL
CC(C)CCOc1ccc2ccccc2c1-c1c(OCC(=O)N[C@H](CCCCN)C(=O)N[C@H](CCCNC(=N)N)C(=O)N[C@@H](CC(C)C)C(=O)OCc2cccc(Cl)c2)ccc2ccccc12.Cl.Cl (atropisomer, axis not shown) [Compound 6] | 0.99 to 15.6 µg/mL | 15.7 to 62.5 µg/mL | 15.7 to 62.5 µg/mL | 15.7 to 62.5 µg/mL | 15.7 to 62.5 µg/mL
CC(C)CCOc1ccc2ccccc2c1-c1c(OCC(=O)N[C@H](CCCCN)C(=O)N[C@H](CCCNC(=N)N)C(=O)N[C@@H](CC(C)C)C(=O)OCc2ccccc2Cl)ccc2ccccc12.Cl.Cl (atropisomer, axis not shown) [Compound 7] | 0.99 to 15.6 µg/mL | 15.7 to 62.5 µg/mL | 15.7 to 62.5 µg/mL | 15.7 to 62.5 µg/mL | 15.7 to 62.5 µg/mL
CC(C)CCOc1ccc2ccccc2c1-c1c(OCC(=O)N[C@H](CCCCN)C(=O)N[C@H](CCCNC(=N)N)C(=O)N[C@@H](CC(C)C)C(=O)OCc2c(Cl)cccc2Cl)ccc2ccccc12.Cl.Cl (atropisomer, axis not shown) [Compound 8] | 15.7 to 62.5 µg/mL | > 62.6 µg/mL | > 62.6 µg/mL | > 62.6 µg/mL | > 62.6 µg/mL

More lines, now with the values ahead:

MIC [1] | MIC [2] | MIC [3] | MIC [4] | MIC [5] | SMILES
0.99 to 15.6 µg/mL | > 62.6 µg/mL | 15.7 to 62.5 µg/mL | 15.7 to 62.5 µg/mL | 15.7 to 62.5 µg/mL | Cc1ccc(COC(=O)[C@H](CC(C)C)NC(=O)[C@@H](CCCNC(=N)N)NC(=O)[C@@H](CCCCN)NC(=O)COc2ccc3ccccc3c2-c2c(OCCC(C)C)ccc3ccccc23)cc1.Cl.Cl (atropisomer, axis not shown) [Compound 9]
0.99 to 15.6 µg/mL (≈ 1.1 to 17.3 µM) | 15.7 to 62.5 µg/mL (≈ 17.4 to 69.3 µM) | 15.7 to 62.5 µg/mL (≈ 17.4 to 69.3 µM) | 15.7 to 62.5 µg/mL (≈ 17.4 to 69.3 µM) | 15.7 to 62.5 µg/mL (≈ 17.4 to 69.3 µM) | CC(C)CCOc1ccc2ccccc2c1-c1c(OCC(=O)N[C@H](CCCCN)C(=O)N[C@H](CCCNC(=N)N)C(=O)N[C@@H](CC(C)C)C(=O)OCc2ccccc2)ccc2ccccc12 (atropisomer, axis not shown) [Compound 10]
0.99 to 15.6 µg/mL | 15.7 to 62.5 µg/mL | 15.7 to 62.5 µg/mL | 15.7 to 62.5 µg/mL | 15.7 to 62.5 µg/mL | CC(C)CCOc1ccc2ccccc2c1-c1c(OCC(=O)N[C@H](CCCCN)C(=O)N[C@H](CCCNC(=N)N)C(=O)N[C@@H](CC(C)C)C(=O)OCCc2ccccc2)ccc2ccccc12.Cl.Cl (atropisomer, axis not shown) [Compound 13]
0.99 to 15.6 µg/mL | 15.7 to 62.5 µg/mL | 15.7 to 62.5 µg/mL | 15.7 to 62.5 µg/mL | > 62.6 µg/mL | CC(C)CCOc1ccc2ccccc2c1-c1c(OCC(=O)N[C@H](CCCCN)C(=O)N[C@H](CCCNC(=N)N)C(=O)N[C@@H](CC(C)C)C(=O)NCc2ccccc2)ccc2ccccc12.Cl.Cl (atropisomer, axis not shown) [Compound 14]

— patent publication US8039430B2 (University of Wollongong, priority 2005, dated 2011)
